In publication PMC5971303, “α-Amylase and α-Glucosidase Inhibitory Activities of Chemical Constituents from Wedelia chinensis (Osbeck.) Merr. Leaves” (Journal of Analytical Methods in Chemistry, 2018):

What was measured:
[1] = target: T1, porcine pancreas α-amylase (Sus scrofa, UniProt P00690); experiment: Assay for α-amylase inhibition (potato starch substrate, iodine, absorbance at 650 nm); type: biochemical; settings: for α-amylase inhibitory effect (in words): compared with acarbose; for IC50: porcine pancreas α-amylase, tested three times, mean ± SD
T1 construct: purchased Sigma-Aldrich A3176
T1 sequence (P00690 16-511): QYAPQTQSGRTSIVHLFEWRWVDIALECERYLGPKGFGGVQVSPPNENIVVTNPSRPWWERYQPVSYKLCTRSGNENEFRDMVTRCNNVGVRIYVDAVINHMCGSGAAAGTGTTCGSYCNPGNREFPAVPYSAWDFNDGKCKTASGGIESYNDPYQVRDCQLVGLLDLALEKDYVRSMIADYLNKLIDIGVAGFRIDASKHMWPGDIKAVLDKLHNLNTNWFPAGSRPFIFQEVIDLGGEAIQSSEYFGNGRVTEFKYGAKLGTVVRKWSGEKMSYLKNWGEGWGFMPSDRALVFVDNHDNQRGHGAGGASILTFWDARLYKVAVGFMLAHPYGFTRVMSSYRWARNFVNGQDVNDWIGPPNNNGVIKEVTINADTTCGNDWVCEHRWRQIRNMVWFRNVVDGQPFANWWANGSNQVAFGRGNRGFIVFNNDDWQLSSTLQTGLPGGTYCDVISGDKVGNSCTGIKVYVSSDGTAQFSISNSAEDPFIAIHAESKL
Description: The substrate was prepared by boiling 100 mg potato starch in 5 mL phosphate buffer (pH 7.0) for 5 min and then cooling to room temperature. The sample ([…] dissolved in DMSO) and substrate ([…]) were mixed in […] of 0.1 M phosphate buffer (pH 7.0). After 5 min preincubation, 5 mg/mL α-amylase solution (20 mL) was added, and the solution was incubated at 37°C for 15 min. The reaction was stopped by adding […] of 1 M·HCl, and then, […] of iodine solution was added. The absorbances were measured at 650 nm by a microplate reader. […] The inhibitory activity was calculated by the following equation: α-amylase inhibitory activity (%) = (1–A/A0) × 100, where A is the absorbance of the sample and A0 is the absorbance of the blank, respectively. The IC50 value was calculated by GraphPad Prism.
(§1) Inhibition of α-glucosidase is one very effective way of delaying glucose absorption and lowering the postprandial blood glucose level, which can potentially suppress the progression of DM.

[2] = tested on: yeast α-glucosidase; experiment: Assay for α-glucosidase inhibition (p-nitrophenyl-α-D-glucopyranoside substrate, absorbance at 405 nm); type: biochemical; settings: for α-glucosidase inhibitory effect (in words): compared with acarbose; for α-Glucosidase IC50 ± SD: tested three times, mean ± SD
Description: The yeast α-glucosidase (G0660, Sigma-Aldrich) inhibition assay was performed using the substrate p-nitrophenyl-α-D-glucopyranoside according to the previously described method. […] After 5 min preincubation, 5 mM p-nitrophenyl-α-D-glucopyranoside solution ([…]) was added, and the solution was incubated at 37°C for 30 min. […]. Each concentration of samples was carried out in triplicate. The absorbance of released 4-nitrophenol was measured at 405 nm by using a microplate reader (xMark, Bio-Rad, USA). […] The inhibitory activity was calculated by the following equation: α-glucosidase inhibitory activity (%) = (1–A/A0) × 100, where A is the absorbance of the sample and A0 is the absorbance of the blank, respectively. The IC50 value was calculated by GraphPad Prism.
as §1

α-amylase inhibitory effect (in words) [1] | IC50 [1] [µM] | α-glucosidase inhibitory effect (in words) [2] | α-Glucosidase IC50 ± SD ([2]; yeast α-glucosidase) [µg/mL] | Structure (SMILES) | α-Glucosidase inhibition (symbol in IC50 column) ([2]; yeast α-glucosidase, dash = no inhibition (less than 10% inhibition))
moderate | 1350 | moderate | 915.6 ± 36.5 | CC(O)C=CC12OC1(C)C(O)C(OS(=O)(=O)O)CC2(C)C [Compound 1, (3S,4R,5R,6S,9S,7E)-megastigman-5,6-epoxy-7-ene,4,9-diol,3-sulfonic acid] | 
moderate | 894 | moderate |  | C[C@@H]1CC[C@]2(C(=O)O)CC[C@]3(C)C(=CC[C@@H]4[C@@]5(C)CCC(=O)C(C)(C)[C@@H]5CC[C@]43C)[C@@H]2[C@]1(C)O [Compound 8, pomonic acid] | — ((‒): no inhibition (less than 10% inhibition))
moderate | 837 | moderate | 821.4 ± 55.2 | C[C@@H]1CC[C@]2(C(=O)O)CC[C@]3(C)C(=CC[C@@H]4[C@@]5(C)CC[C@H](O)C(C)(C)[C@@H]5CC[C@]43C)[C@@H]2[C@]1(C)O [Compound 9, pomolic acid] | 

Structure (SMILES) | α-amylase inhibitory effect (in words) [1] | IC50 [1] [µM] | α-glucosidase inhibitory effect (in words) [2] | α-Glucosidase IC50 ± SD ([2]; yeast α-glucosidase) [µg/mL] | α-Glucosidase inhibition (symbol in IC50 column) ([2]; yeast α-glucosidase, dash = no inhibition (less than 10% inhibition))
COc1cc(-c2cc(=O)c3c(O)c(OC)c(O)cc3o2)ccc1O [Compound 7, jaceosidin] |  | 342 |  | 785.9 ± 12.7 | 
